The test system of assay [1] is T1, Class C beta-lactamase, E. coli M50 (CMY/DHA).
T1 construct: no borders, tags or purification printed
The assay is classed as biochemical. The conditions noted are these: read-out: Beta-lactamase enzyme inhibition IC50. The protocol: (§1) Determination of enzyme inhibition activity: Concentration of the inhibitor required to inhibit 50% of enzymatic activity was measured by adding a chromogenic substrate, Nitrocefin (100 uM, 5 min) to the preincubated mixture of crude enzyme and the agents (37° C., 10 min). Absorbance was measured at 485 nm by UV-spectrophotometer. The IC50 was calculated by plotting absorbance against concentration through Sigmoidal dose response curve using Graph Pad software.
(§2) The enzyme inhibition was expressed as IC50.

For assay [2], the system named is K. pneumoniae H521 (KPC, SHV, TEM). Nature of the assay: Antibacterial activity, MIC by agar dilution (CLSI). The assay is classed as cell-based. The conditions noted are these: Klebsiella pneumoniae. As for the experimental part: (§3) The biological activity of representative compounds according to the invention against various bacterial strains was investigated. In a typical study, overnight grown bacterial cultures were diluted appropriately and inoculated on the agar media containing doubling dilutions of the test compounds. Observations for growth or no growth was performed after 16-20 hours of incubation at 35±2° C. in the ambient air. The overall procedure was performed as per Clinical and Laboratory Standards Institute (CLSI) recommendations, (Clinical and Laboratory Standards Institute (CLSI), Performance Standards for Antimicrobial Susceptibility Testing, 20th Informational Supplement, M07-A9, Volume 32, No. 2, 2012). Molten Mueller Hinton Agar (BD, USA) containing serial dilutions of each antibacterial agent were poured on to the plates and allowed to solidify. Appropriate suspensions from the freshly grown cultures were prepared in normal saline so that about 10^4 CFU/spot of the organism was delivered on to the drug containing agar plates using automated multipoint inoculator (Mast, UK). The plates were incubated in Biochemical oxygen demand (BOD) incubator at 37° C. for 18 hours and then examined for growth.
(§4) The strains selected for study included E. coli NCTC 13353 producing CTX-M15 and OXA-1 beta-lactamase enzymes; K. pneumoniae H521 producing KPC, SHV, TEM beta-lactamase enzymes; and K. pneumoniae S48 producing NDM, SHV, TEM beta-lactamase enzymes. The activities are expressed as Minimum Inhibitory Concentrations (MICs) (mcg/ml).
For orientation: Agar dilution tests growth on a series of plates holding different concentrations.

For assay [3], the target named is T2, Class D beta-lactamase, A. baumannii NCTC 13301 (OXA 23) (Acinetobacter baumannii, UniProt Q9L4P2).
T2 construct: preincubated mixture of crude enzyme and the agents; endogenous in cells; host or cells: A. baumannii NCTC 13301
T2 sequence (Q9L4P2 18-273): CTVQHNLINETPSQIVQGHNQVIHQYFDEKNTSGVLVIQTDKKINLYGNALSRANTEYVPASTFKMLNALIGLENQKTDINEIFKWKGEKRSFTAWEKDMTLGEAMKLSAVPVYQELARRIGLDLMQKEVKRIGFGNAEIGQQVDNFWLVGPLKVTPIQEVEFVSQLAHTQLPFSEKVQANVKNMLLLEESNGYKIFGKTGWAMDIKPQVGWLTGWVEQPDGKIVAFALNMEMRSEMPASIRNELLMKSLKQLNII
Nature of the assay: Beta-lactamase enzyme inhibition (nitrocefin, crude enzyme). It counts as biochemical. As for the experimental part:
as §1, §2

For assay [4], the system named is E. coli NCTC 13353 (CTX-M15, OXA-1). Nature of the assay: Antibacterial activity, MIC by agar dilution (CLSI). It counts as cell-based. The protocol: as §3
Table 2 details the antibacterial activity of representative compounds according to invention, against various Multi Drug Resistant (MDR) Gram-negative bacterial strains. The strains selected for study included E. coli NCTC 13353 producing CTX-M15 and OXA-1 beta-lactamase enzymes; K. pneumoniae H521 producing KPC, SHV, TEM beta-lactamase enzymes; and K. pneumoniae S48 producing NDM, SHV, TEM beta-lactamase enzymes. The activities are expressed as Minimum Inhibitory Concentrations (MICs) (mcg/ml).

In assay [5] the target is T3, Class A beta-lactamase, K. pneumoniae ATCC 700603 (SHV 18) (Klebsiella pneumoniae, UniProt P0AD64, E235K/G234A/R39S).
T3 construct: preincubated mixture of crude enzyme and the agents; endogenous in cells; host or cells: K. pneumoniae ATCC 700603
T3 sequence (P0AD64 22-286 R39S/G234A/E235K): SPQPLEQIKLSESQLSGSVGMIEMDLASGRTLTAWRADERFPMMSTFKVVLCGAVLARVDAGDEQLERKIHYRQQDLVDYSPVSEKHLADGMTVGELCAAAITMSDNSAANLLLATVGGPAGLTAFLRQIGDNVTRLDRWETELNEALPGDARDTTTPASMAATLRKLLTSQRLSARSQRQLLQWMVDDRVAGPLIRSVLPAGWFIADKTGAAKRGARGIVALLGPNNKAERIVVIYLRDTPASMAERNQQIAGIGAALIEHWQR
Nature of the assay: biochemical. The protocol:
as §1, §2

The test system of assay [6] is K. pneomoniae S48 (NDM, SHV, TEM). Nature of the assay: Antibacterial activity, MIC by agar dilution (CLSI). The assay is classed as cell-based, K. pneumoniae. As for the experimental part: as §3, §4
Where [7] appears, read: 18 h, Table 2, K. pneumoniae H521 (KPC, SHV, TEM), read-out: MIC.
[8] abbreviates: Class D A. baumannii NCTC 13301 (OXA 23), read-out: Beta-lactamase enzyme inhibition IC50.
[9] abbreviates: Escherichia coli, NCTC13353, 18 h, Table 2, E. Coli NCTC 13353 (CTX-M15, OXA-1), read-out: MIC.
[10] abbreviates: Klebsiella pneumoniae, 18 h, Table 2, K. pneomoniae S48 (NDM, SHV, TEM), read-out: MIC.
The mark [11] stands for this setting: Table 2, K. pneumoniae H521 (KPC, SHV, TEM), read-out: MIC.
Setting [12] is: Escherichia coli, NCTC13353, Table 2, E. Coli NCTC 13353 (CTX-M15, OXA-1), read-out: MIC.
[13] abbreviates: Klebsiella pneumoniae, Table 2, K. pneomoniae S48 (NDM, SHV, TEM), read-out: MIC.
Setting [14] is: Escherichia coli, NCTC13353, 18 h.

Converted amounts (≈) assume the structure as drawn. Where a name gives a salt, the structure may show the parent alone. Read-outs that look alike come from different tables or passages of the source.

With `O=C(O)[C@H]1/C(=C/CO)O[C@@H]2CC(=O)N21` [Clavulanic acid, clavulanic acid, reference compound], the IC50 (as a rule, the concentration needed to halve the response being measured) in assay [1] was above 10000 nM.

Consider `CCOc1ccccc1CC(=O)NNC(=O)[C@@H]1CC[C@@H]2CN1C(=O)N2OS(=O)(=O)O` [Example 15, sodium salt of (2S,5R)-sulfuric acid mono-[2-(N′-(2-ethoxyphenyl-acetyl)-hydrazinocarbonyl)-7-oxo-1,6-diaza-bicyclo[3.2.1]oct-6-yl]ester], for which the MIC in assay [2] (setting [7]), in assay [4] (setting [9]) and in assay [6] (setting [10]) was above 32 µg/mL in each case. The IC50 was 210 nM in assay [3] (setting [8]) and 49 nM in assay [5].

On to `Nc1ccc(CC(=O)NNC(=O)[C@@H]2CC[C@@H]3CN2C(=O)N3OS(=O)(=O)O)c(F)c1` [Example 17, (2S,5R)-sulfuric acid mono-[2-(N′-(4-amino-2-fluorophenyl-acetyl)-hydrazinocarbonyl)-7-oxo-1,6-diaza-bicyclo[3.2.1]oct-6-yl]ester], for which the MIC (usually the least concentration at which growth counts as inhibited) is 4 µg/mL (≈ 9.27 µM) in assay [2] (setting [11]), 1 µg/mL (≈ 2.32 µM) in assay [4] (setting [12]) and 1 µg/mL (≈ 2.32 µM) in assay [6] (setting [13]). Besides, the values for the half-maximal inhibitory concentration (IC50) in assay [3] (setting [8]) and in assay [1] were 194 nM and 14 nM, respectively.

With `O=C(Cc1ccc(O)cc1F)NNC(=O)[C@@H]1CC[C@@H]2CN1C(=O)N2OS(=O)(=O)O` [Example 18, sodium salt of (2S,5R)-sulfuric acid mono-[2-(N′-(2-fluoro-4-hydroxyphenyl-acetyl)-hydrazinocarbonyl)-7-oxo-1,6-diaza-bicyclo[3.2.1]oct-6-yl]ester], the MIC turned out to be 2 µg/mL in assay [2] (setting [7]), 0.5 µg/mL in assay [4] (setting [9]) and 0.5 µg/mL in assay [6] (setting [10]). In addition, the IC50 in assay [3] (setting [8]) came out at 146 nM; in assay [5], 154 nM.

As for `O=C(Cc1ccccc1O)NNC(=O)[C@@H]1CC[C@@H]2CN1C(=O)N2OS(=O)(=O)O` [Example 19, sodium salt of (2S,5R)-sulfuric acid mono-[2-(N′-(2-hydroxyphenyl-acetyl)-hydrazinocarbonyl)-7-oxo-1,6-diaza-bicyclo[3.2.1]oct-6-yl]ester], the MIC in assay [2] (setting [7]) turned out to be 2 µg/mL; in assay [4] (setting [9]) it was 1 µg/mL; in assay [6] (setting [10]), 2 µg/mL. Also, the IC50 in assay [3] (setting [8]) was found to be 677 nM; in assay [5], 13 nM.

Take `O=C(Cc1cccc(O)c1)NNC(=O)[C@@H]1CC[C@@H]2CN1C(=O)N2OS(=O)(=O)O` [Example 20, sodium salt of (2S,5R)-sulfuric acid mono-[2-(N′-(3-hydroxyphenyl-acetyl)-hydrazinocarbonyl)-7-oxo-1,6-diaza-bicyclo[3.2.1]oct-6-yl]ester]: the MIC came out at 1 µg/mL in assay [2] (18 h); 0.5 µg/mL in assay [4] (setting [14]); 0.5 µg/mL in assay [6] (Klebsiella pneumoniae, 18 h). Also, the IC50 stood at 249 nM in assay [3] (setting [8]) and 12 nM in assay [5].

For the compound `CC(C)(C)C(=O)Oc1ccc(CC(=O)NNC(=O)[C@@H]2CC[C@@H]3CN2C(=O)N3OS(=O)(=O)O)cc1` [Example 22, sodium salt of 2,2-dimethyl-propionic acid 4-{2-oxo-2-[N′-((2S,5R)-7-oxo-6-sulphooxy-1,6-diaza-bicyclo[3.2.1]octane-2-carbonyl)-hydrazino]ethyl}-phenyl ester], the MIC came to 32 µg/mL in assay [2] (setting [7]), 16 µg/mL in assay [4] (setting [9]) and 32 µg/mL in assay [6] (setting [10]). Further, the IC50 in assay [3] (setting [8]) is 973 nM; in assay [5], 25 nM.

With `CC(C)(C)OC(=O)CC(=O)Oc1ccc(CC(=O)NNC(=O)[C@@H]2CC[C@@H]3CN2C(=O)N3OS(=O)(=O)O)cc1` [Example 26, sodium salt of (2S,5R)-malonic acid tert-butyl ester 4-{2-oxo-2-[N′-(7-oxo-6-sulphooxy-1,6-diaza-bicyclo[3.2.1]octane-2-carbonyl)-hydrazino]ethyl}-phenyl ester], the MIC in assay [2] (setting [7]) was found to be 4 µg/mL; in assay [4] (setting [9]), 2 µg/mL; in assay [6] (setting [10]), 2 µg/mL. Besides, the IC50 in assay [3] (setting [8]) stood at 370 nM; in assay [5], 25 nM.

For the compound `O=C(Cc1ccc(OC(=O)NC2CCCCC2)cc1)NNC(=O)[C@@H]1CC[C@@H]2CN1C(=O)N2OS(=O)(=O)O` [Example 28, sodium salt of (2S,5R)-cyclohexyl-carbamic acid 4-{2-oxo-2-[N′-(7-oxo-6-sulphooxy-1,6-diaza-bicyclo[3.2.1]octane-2-carbonyl)-hydrazino]ethyl}-phenyl ester], the MIC in assay [2] (18 h) was determined as 32 µg/mL; in assay [4] (setting [14]), 8 µg/mL; in assay [6] (Klebsiella pneumoniae, 18 h), 16 µg/mL. In addition, the IC50 in assay [3] was 243 nM; in assay [5] it was 8 nM.

Regarding `CC(C)[C@H](NC(=O)Oc1ccc(CC(=O)NNC(=O)[C@@H]2CC[C@@H]3CN2C(=O)N3OS(=O)(=O)O)cc1)C(=O)OC(C)(C)C` [Example 29, sodium salt of (S)-3-methyl-2-(4-{2-oxo-2-[N′-((2S,5R)-7-oxo-6-sulphooxy-1,6-diaza-bicyclo[3.2.1]-octane-2-carbonyl)-hydrazino]-ethyl}-phenoxycarbonylamino)-butyric acid tert-butyl ester], the MIC in assay [2] turned out to be 16 µg/mL; in assay [4] (Escherichia coli, NCTC13353) it was 4 µg/mL; in assay [6] (Klebsiella pneumoniae), 4 µg/mL. The IC50 in assay [3] was determined as 2850 nM; in assay [5] it was 327 nM.

In the case of `CNCCOc1ccccc1CC(=O)NNC(=O)[C@@H]1CC[C@@H]2CN1C(=O)N2OS(=O)(=O)O` [Example 36, (2S,5R)-sulfuric acid mono-[2-(N′-{2-[2-(2-N-methylamino-ethoxy)-phenyl]-acetyl}-hydrazinocarbonyl)-7-oxo-1,6-diaza-bicyclo[3.2.1]oct-6-yl]ester], the MIC came to 2 µg/mL (≈ 4.24 µM) in assay [2] (setting [7]), 1 µg/mL (≈ 2.12 µM) in assay [4] (setting [9]) and 1 µg/mL (≈ 2.12 µM) in assay [6] (setting [10]). Further, the IC50 in assay [3] (setting [8]) was determined as 2170 nM; in assay [5], 71 nM.

On to `CNCCOc1cccc(CC(=O)NNC(=O)[C@@H]2CC[C@@H]3CN2C(=O)N3OS(=O)(=O)O)c1` [Example 37, (2S,5R)-sulfuric acid mono-[2-(N′-{2-[3-(2-N-methylamino-ethoxy)-phenyl]-acetyl}-hydrazinocarbonyl)-7-oxo-1,6-diaza-bicyclo[3.2.1]oct-6-yl]ester], for which the MIC in assay [2] (setting [7]) is 1 µg/mL (≈ 2.12 µM); in assay [4] (setting [9]), 0.5 µg/mL (≈ 1.06 µM); in assay [6] (setting [10]), 0.5 µg/mL (≈ 1.06 µM). The IC50 was 938 nM in assay [3] (setting [8]) and 36 nM in assay [5].

In the case of `O=C(Cc1ccc(O[C@H]2CCNC2)cc1)NNC(=O)[C@@H]1CC[C@@H]2CN1C(=O)N2OS(=O)(=O)O` [Example 64], the minimum inhibitory concentration (MIC) in assay [2] (setting [11]) was determined as 1 µg/mL (≈ 2.07 µM); in assay [4] (setting [12]), 0.5 µg/mL (≈ 1.03 µM); in assay [6] (setting [13]), 0.5 µg/mL (≈ 1.03 µM). Further, the results for the IC50 in assay [3] (setting [8]) and in assay [5] were 432 nM and 47 nM, respectively.

For the compound “sodium salt of (2S,5R)-succinic acid tert-butyl ester 4-{2-oxo-2-[N′-(7-oxo-6-sulphooxy-1,6-diaza-bicyclo[3.2.1]octane-2-carbonyl)-hydrazino]ethyl}-phenyl ester [Example 27]”, the IC50 in assay [3] (setting [8]) worked out at 498 nM; in assay [1], 14 nM. Further, the MIC worked out at 2 µg/mL in assay [4] (Table 2, E. Coli NCTC 13353 (CTX-M15, OXA-1)) and 8 µg/mL in assay [6] (Table 2, K. pneomoniae S48 (NDM, SHV, TEM)).
